Data set [1] has as its target T1, ADP/ATP translocase 2 (Homo sapiens) (UniProt P05141).
T1 sequence (whole entry): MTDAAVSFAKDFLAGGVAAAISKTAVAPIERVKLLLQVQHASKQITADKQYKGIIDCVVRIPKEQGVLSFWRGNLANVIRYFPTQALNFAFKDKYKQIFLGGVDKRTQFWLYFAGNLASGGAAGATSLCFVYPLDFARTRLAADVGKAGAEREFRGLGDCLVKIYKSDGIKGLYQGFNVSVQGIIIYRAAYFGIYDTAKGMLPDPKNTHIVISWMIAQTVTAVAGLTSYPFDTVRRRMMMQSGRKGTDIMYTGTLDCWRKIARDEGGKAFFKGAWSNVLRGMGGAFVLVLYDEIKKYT
Briefly: Inhibition of ANT2 in human HeLa cells assessed as growth inhibition at 50 uM incubated for 5 days by crystal violet staining based assay. The data set is classed as cell-based.

Data set [2] concerns the target T1, ADP/ATP translocase 2 (Homo sapiens). Briefly: Inhibition of ANT2 in human HeLa cells assessed as cell survival at 50 uM incubated for 5 days by crystal violet staining based assay.
Data set [3] can be described thus: Cytotoxicity against mouse NIH/3T3 cells assessed as cell survival at 50 uM incubated for 5 days by crystal violet staining based assay. To be noted: read-out: Survival. More on the design: species or system NIH3T3.

For the molecule `O=C(CC(=O)C1C(=O)c2ccccc2C1=O)c1ccccc1`, the growth inhibition (GI) in data set [1] came to 84%.

Consider `CC(C)CC(=O)C1C(=O)c2ccccc2C1=O`, for which, in data set [2], the Survival stood at 5%. Also, the growth inhibition (GI) in data set [1] was 79%. Further, the viability at 120 h, 50 µM in data set [3] came to 40%.

These data come from ChEMBL document CHEMBL3881531, “ANT2 inhibitor compounds and methods of use thereof” (2009).
